According to US9828385B2, “Spiro-oxazolones” (Hoffmann-La Roche Inc., priority 2014, dated 2017):

target: T1, human V1a receptor (Homo sapiens, UniProt P37288); assay: human V1a receptor binding studies (3H-Vasopressin, SPA beads); conditions: membranes of HEK293 cells transiently transfected with human V1a receptor, Ki by Cheng-Prussoff from IC50, read-out: pKi hV1a (converted)
T1 construct: expressed in transfected cells; host or cells: HEK293 cells, transiently transfected; cell membranes
Outline: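 Membranes from transiently transfected HEK293 cells expressing cloned human V1a receptor, on yttrium silicate SPA beads, competed against 4 nM 3H-vasopressin (added stock concentration) in Tris buffer with NaCl, KCl, CaCl2, MgCl2 for 1 h at room temperature. Nonspecific binding with cold vasopressin; IC50 by nonlinear fit, Ki via Cheng-Prusoff.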

T1 sequence (P37288 whole entry): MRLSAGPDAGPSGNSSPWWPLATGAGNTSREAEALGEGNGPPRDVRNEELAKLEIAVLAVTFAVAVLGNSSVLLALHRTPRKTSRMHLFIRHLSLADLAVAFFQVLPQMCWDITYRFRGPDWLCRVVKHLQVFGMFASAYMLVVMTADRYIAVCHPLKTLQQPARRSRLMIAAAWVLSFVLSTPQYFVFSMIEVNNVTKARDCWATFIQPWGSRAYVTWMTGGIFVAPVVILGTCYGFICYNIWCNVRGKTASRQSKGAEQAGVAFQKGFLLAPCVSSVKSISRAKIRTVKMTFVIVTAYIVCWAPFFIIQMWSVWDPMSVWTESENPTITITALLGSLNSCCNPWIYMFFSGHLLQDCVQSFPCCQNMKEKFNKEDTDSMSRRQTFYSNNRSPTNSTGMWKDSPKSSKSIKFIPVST

Row | Compound | Ki
1 | C=C(CC1(CC(=C)C(F)(F)F)OC(N2CCC3(CC2)OCc2ccccc23)=NC1=O)C(F)(F)F [Example 64, 2-(3H-Spiro[isobenzofuran-1,4′-piperidine]-1′-yl)-5,5-bis(2-(trifluoromethyl)allyl)oxazol-4(5H)-one] | 12.6 nM
2 | C=CCC1(CC(=C)CO[Si](C)(C)C(C)(C)C)OC(N2CCC3(CC2)OCc2ccccc23)=NC1=O (centres unmarked) [Example 65, 5-[2-({[tert-Butyl(dimethyl)silyl]oxy}methyl)prop-2-en-1-yl]-5-(prop-2-en-1-yl)-2-(1′H,3H-spiro[2-benzofuran-1,4′-piperidin]-1′-yl)-1,3-oxazol-4(5H)-one] | 63.1 nM
3 | CCCCC1(C)OC(N2CCC3(CC2)OCc2ccccc23)=NC1=O (centres unmarked) [Example 66, 5-Butyl-5-methyl-2-(1′H,3H-spiro[2-benzofuran-1,4′-piperidin]-1′-yl)-1,3-oxazol-4(5H)-one] | 39.8 nM
4 | CCCCC1(C)OC(N2CCC3(CC2)OC(=O)c2ccccc23)=NC1=O (centres unmarked) [Example 69, 1′-(5-Butyl-5-methyl-4-oxo-4,5-dihydro-1,3-oxazol-2-yl)-3H-spiro[2-benzofuran-1,4′-piperidin]-3-one] | 316 nM
5 | CCC1(Cc2ccccc2)OC(N2CCC3(CC2)OCc2ccccc23)=NC1=O (centres unmarked) [Example 74, 5-Benzyl-5-ethyl-2-(1′H,3H-spiro[2-benzofuran-1,4′-piperidin]-1′-yl)-1,3-oxazol-4(5H)-one] | 10 nM
6 | CC1(Cc2ccc(Cl)cc2)OC(N2CCC3(CC2)OCc2ccccc23)=NC1=O (centres unmarked) [Example 75, 5-(4-Chlorobenzyl)-5-methyl-2-(1′H,3H-spiro[2-benzofuran-1,4′-piperidin]-1′-yl)-1,3-oxazol-4(5H)-one] | 3.98 nM
7 | CC1(Cc2ccc(Cl)nc2)OC(N2CCC3(CC2)OCc2ccccc23)=NC1=O (centres unmarked) [Example 82, 5-[(6-Chloropyridin-3-yl)methyl]-5-methyl-2-(1′H,3H-spiro[2-benzofuran-1,4′-piperidin]-1′-yl)-1,3-oxazol-4(5H)-one] | 50.1 nM
8 | CC1(Cc2ccc(Cl)s2)OC(N2CCC3(CC2)OCc2ccccc23)=NC1=O (centres unmarked) [Example 85, 5-[(5-Chlorothiophen-2-yl)methyl]-5-methyl-2-(1′H,3H-spiro[2-benzofuran-1,4′-piperidin]-1′-yl)-1,3-oxazol-4(5H)-one] | 5.01 nM
9 | CC1(Cc2c(F)c(F)c(F)c(F)c2F)OC(N2CCC3(CC2)OCc2ccccc23)=NC1=O (centres unmarked) [Example 88, 5-Methyl-5-(pentafluorobenzyl)-2-(1′H,3H-spiro[2-benzofuran-1,4′-piperidin]-1′-yl)-1,3-oxazol-4(5H)-one] | 79.4 nM
10 | CC1(C(F)(F)c2ccc(C(F)F)cc2)OC(N2CCC3(CC2)OCc2ccccc23)=NC1=O (centres unmarked) [Example 89, 5-{[4-(Difluoromethyl)phenyl](difluoro)methyl}-5-methyl-2-(1′H,3H-spiro[2-benzofuran-1,4′-piperidin]-1′-yl)-1,3-oxazol-4(5H)-one] | 158 nM
11 | CC1(C(O)c2ccccc2)OC(N2CCC3(CC2)OCc2ccccc23)=NC1=O (centres unmarked) [Example 90, 5-[Hydroxy(phenyl)methyl]-5-methyl-2-(1′H,3H-spiro[2-benzofuran-1,4′-piperidin]-1′-yl)-1,3-oxazol-4(5H)-one] | 126 nM
12 | CC1(C(O)c2ccc(Cl)cc2)OC(N2CCC3(CC2)OCc2ccccc23)=NC1=O (centres unmarked) [Example 91, 5-[(4-Chlorophenyl)(hydroxy)methyl]-5-methyl-2-(1′H,3H-spiro[2-benzofuran-1,4′-piperidin]-1′-yl)-1,3-oxazol-4(5H)-one] | 25.1 nM
13 | CC1(C(F)c2ccc(Cl)cc2)OC(N2CCC3(CC2)OCc2ccccc23)=NC1=O (centres unmarked) [Example 92, 5-[(4-Chlorophenyl)(fluoro)methyl]-5-methyl-2-(1′H,3H-spiro[2-benzofuran-1,4′-piperidin]-1′-yl)-1,3-oxazol-4(5H)-one] | 31.6 nM
14 | CC1(C(O)c2ccc(Cl)cc2)OC(N2CCC3(CC2)OC(=O)c2ccccc23)=NC1=O (centres unmarked) [Example 93, 1′-{5-[(4-Chlorophenyl)(hydroxy)methyl]-5-methyl-4-oxo-4,5-dihydro-1,3-oxazol-2-yl}-3H-spiro[2-benzofuran-1,4′-piperidin]-3-one] | 126 nM
15 | O=C1N=C(N2CCC3(CC2)OCc2ccccc23)OC1(Cc1ccc(Cl)cc1)Cc1ccc(Cl)cc1 [Example 94, 5,5-bis(4-Chlorobenzyl)-2-(1′H,3H-spiro[2-benzofuran-1,4′-piperidin]-1′-yl)-1,3-oxazol-4(5H)-one] | 1 nM
16 | O=C1OC2(CCN(C3=NC(=O)C(Cc4ccc(Cl)cc4)(Cc4ccc(Cl)cc4)O3)CC2)c2ccccc21 [Example 95, 1′-[5,5-Bis(4-chlorobenzyl)-4-oxo-4,5-dihydro-1,3-oxazol-2-yl]-3H-spiro[2-benzofuran-1,4′-piperidin]-3-one] | 5.01 nM

The next lines start with the values.

Row | Ki | Compound
17 | 5.01 nM | CC1(CC2CCCC2)OC(N2CCC3(CC2)OCc2ccccc23)=NC1=O (centres unmarked) [Example 76, 5-(Cyclopentylmethyl)-5-methyl-2-(1′H,3H-spiro[2-benzofuran-1,4′-piperidin]-1′-yl)-1,3-oxazol-4(5H)-one]
18 | 20 nM | CC1(CC2CCCCC2)OC(N2CCC3(CC2)OCc2ccccc23)=NC1=O (centres unmarked) [Example 79, 5-(Cyclohexylmethyl)-5-methyl-2-(1′H,3H-spiro[2-benzofuran-1,4′-piperidin]-1′-yl)-1,3-oxazol-4(5H)-one]
19 | 251 nM | CC1(CN2CCCC2)OC(N2CCC3(CC2)OCc2ccccc23)=NC1=O (centres unmarked) [Example 98, 5-Methyl-5-(pyrrolidin-1-ylmethyl)-2-(1′H,3H-spiro[2-benzofuran-1,4′-piperidin]-1′-yl)-1,3-oxazol-4(5H)-one]
20 | 200 nM | CC1(CC2CCCO2)OC(N2CCC3(CC2)OCc2ccccc23)=NC1=O (centres unmarked) [Example 101, 5-Methyl-2-(1′H,3H-spiro[2-benzofuran-1,4′-piperidin]-1′-yl)-5-(tetrahydrofuran-2-ylmethyl)-1,3-oxazol-4(5H)-one]
21 | 158 nM | O=C1N=C(N2CCC3(CC2)OCc2ccccc23)OC12CCCC2 [Example 112, 2-(3H-Spiro[isobenzofuran-1,4′-piperidine]-1′-yl)-1-oxa-3-azaspiro[4.4]non-2-en-4-one]
22 | 100 nM | O=C1N=C(N2CCC3(CC2)OCc2ccccc23)OC12CC=CC2 [Example 113, 2-(1′H,3H-Spiro[2-benzofuran-1,4′-piperidin]-1′-yl)-1-oxa-3-azaspiro[4.4]nona-2,7-dien-4-one]
23 | 12.6 nM | CC1=CCC2(C1)OC(N1CCC3(CC1)OCc1ccccc13)=NC2=O (centres unmarked) [Example 114, 7-Methyl-2-(1′H,3H-spiro[2-benzofuran-1,4′-piperidin]-1′-yl)-1-oxa-3-azaspiro[4.4]nona-2,7-dien-4-one]
24 | 10 nM | CC1=C(C)CC2(C1)OC(N1CCC3(CC1)OCc1ccccc13)=NC2=O [Example 115, 7,8-Dimethyl-2-(1′H,3H-spiro[2-benzofuran-1,4′-piperidin]-1′-yl)-1-oxa-3-azaspiro[4.4]nona-2,7-dien-4-one]
25 | 126 nM | CCOC(=O)C1=CCC2(C1)OC(N1CCC3(CC1)OCc1ccccc13)=NC2=O (centres unmarked) [Example 116, Ethyl 4-oxo-2-(1′H,3H-spiro[2-benzofuran-1,4′-piperidin]-1′-yl)-1-oxa-3-azaspiro[4.4]nona-2,7-diene-7-carboxylate]
26 | 1.26 nM | O=C1N=C(N2CCC3(CC2)OCc2ccccc23)OC12CC=C(C(F)(F)F)C2 (centres unmarked) [Example 117, 2-(1′H,3H-Spiro[2-benzofuran-1,4′-piperidin]-1′-yl)-7-(trifluoromethyl)-1-oxa-3-azaspiro[4.4]nona-2,7-dien-4-one]
